PubChem BioAssay (NCI)
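Test compounds were applied to cells in 96-well plates for 48 hours at 5 doses. Here, GI50 denotes the concentration required for 50% inhibition of growth. Definition used: TGI = concentration required for complete inhibition of growth.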

Assays:
Test in all cases: DTP human tumour cell line panel, 48 h
786-0 renal = system: 786-0 renal
A549 NSCLC = system: A549 NSCLC
ACHN renal = system: ACHN renal
BT-549 breast = system: BT-549 breast
CAKI-1 renal = system: CAKI-1 renal
CCRF-CEM leukemia = system: CCRF-CEM leukemia
COLO 205 colon = system: COLO 205 colon
DU-145 prostate = system: DU-145 prostate
EKVX NSCLC = system: EKVX NSCLC
HCC-2998 colon = system: HCC-2998 colon
HCT-116 colon = system: HCT-116 colon
HCT-15 colon = system: HCT-15 colon
HL-60(TB) leukemia = system: HL-60(TB) leukemia
HOP-62 NSCLC = system: HOP-62 NSCLC
HOP-92 NSCLC = system: HOP-92 NSCLC
HS 578T breast = system: HS 578T breast
HT29 colon = system: HT29 colon
IGROV1 ovarian = system: IGROV1 ovarian
K-562 leukemia = system: K-562 leukemia
KM12 colon = system: KM12 colon
LOX IMVI melanoma = system: LOX IMVI melanoma
M14 melanoma = system: M14 melanoma
MALME-3M melanoma = system: MALME-3M melanoma
MCF7 breast = system: MCF7 breast
MDA-MB-231 breast = system: MDA-MB-231 breast
MDA-MB-435 = system: MDA-MB-435
MOLT-4 leukemia = system: MOLT-4 leukemia
NCI-H226 lung = system: NCI-H226 lung
NCI-H23 lung = system: NCI-H23 lung
NCI-H460 lung = system: NCI-H460 lung
NCI-H522 lung = system: NCI-H522 lung
NCI/ADR-RES ovarian = system: NCI/ADR-RES ovarian
OVCAR-3 ovarian = system: OVCAR-3 ovarian
OVCAR-4 ovarian = system: OVCAR-4 ovarian
OVCAR-5 ovarian = system: OVCAR-5 ovarian
OVCAR-8 ovarian = system: OVCAR-8 ovarian
PC-3 prostate = system: PC-3 prostate
RXF 393 renal = system: RXF 393 renal
SF-268 CNS = system: SF-268 CNS
SF-295 CNS = system: SF-295 CNS
SF-539 CNS = system: SF-539 CNS
SK-MEL-2 melanoma = system: SK-MEL-2 melanoma
SK-MEL-28 melanoma = system: SK-MEL-28 melanoma
SK-MEL-5 melanoma = system: SK-MEL-5 melanoma
SK-OV-3 ovarian = system: SK-OV-3 ovarian
SN12C renal = system: SN12C renal
SNB-19 CNS = system: SNB-19 CNS
SNB-75 CNS = system: SNB-75 CNS
SR leukemia = system: SR leukemia
SW-620 colon = system: SW-620 colon
T-47D breast = system: T-47D breast
TK-10 renal = system: TK-10 renal
U251 CNS = system: U251 CNS
UACC-257 melanoma = system: UACC-257 melanoma
UACC-62 melanoma = system: UACC-62 melanoma
UO-31 renal = system: UO-31 renal

## COc1cc(/C=C2\Oc3cc(OCCCN4CCCC4)ccc3C2=O)cc(OC)c1
786-0 renal
  GI50: 3.86 µM
  TGI: 14.5 µM
A549 NSCLC
  GI50: 3.44 µM
  TGI: 14.8 µM
ACHN renal
  GI50: 3.13 µM
  TGI: 10.7 µM
BT-549 breast
  GI50: 8.76 µM
  TGI: 21.7 µM
CAKI-1 renal
  GI50: 3.54 µM
  TGI: 16.4 µM
CCRF-CEM leukemia
  GI50: 2.76 µM
  TGI: 10.4 µM
COLO 205 colon
  GI50: 2.58 µM
  TGI: 8.3 µM
DU-145 prostate
  GI50: 3.68 µM
  TGI: 12.8 µM
EKVX NSCLC
  GI50: 9.6 µM
  TGI: 21.9 µM
HCC-2998 colon
  GI50: 3.91 µM
  TGI: 15 µM
HCT-116 colon
  GI50: 2.78 µM
  TGI: 8.34 µM
HCT-15 colon
  GI50: 2.84 µM
  TGI: 12.3 µM
HL-60(TB) leukemia
  GI50: 2.6 µM
  TGI: 6.66 µM
HOP-62 NSCLC
  GI50: 3.68 µM
  TGI: 15.3 µM
HOP-92 NSCLC
  GI50: 3.2 µM
  TGI: 16.8 µM
HS 578T breast
  GI50: 5.15 µM
  TGI: 25.6 µM
HT29 colon
  GI50: 2.8 µM
  TGI: 8.69 µM
IGROV1 ovarian
  GI50: 4.4 µM
  TGI: 16.9 µM
K-562 leukemia
  GI50: 2.3 µM
  TGI: 7.69 µM
KM12 colon
  GI50: 4.82 µM
  TGI: 17.7 µM
LOX IMVI melanoma
  GI50: 1.6 µM
  TGI: 3.05 µM
M14 melanoma
  GI50: 1.83 µM
  TGI: 3.75 µM
MALME-3M melanoma
  GI50: 1.77 µM
  TGI: 4.26 µM
MCF7 breast
  GI50: 2.94 µM
  TGI: 13.4 µM
MDA-MB-231 breast
  GI50: 3.28 µM
  TGI: 11.1 µM
MDA-MB-435
  GI50: 10.5 µM
  TGI: 22.4 µM
MOLT-4 leukemia
  GI50: 2.59 µM
  TGI: 9.19 µM
NCI-H226 lung
  GI50: 13.8 µM
  TGI: 27 µM
NCI-H23 lung
  GI50: 4.75 µM
  TGI: 18.7 µM
NCI-H460 lung
  GI50: 3.43 µM
  TGI: 12.3 µM
NCI-H522 lung
  GI50: 14.2 µM
  TGI: 32.7 µM
NCI/ADR-RES ovarian
  GI50: 6.17 µM
  TGI: 21.6 µM
OVCAR-3 ovarian
  GI50: 2.74 µM
  TGI: 8.17 µM
OVCAR-4 ovarian
  GI50: 7.16 µM
  TGI: 19.8 µM
OVCAR-5 ovarian
  GI50: 12.5 µM
  TGI: 25.4 µM
OVCAR-8 ovarian
  GI50: 3.71 µM
  TGI: 15.4 µM
PC-3 prostate
  GI50: 4.52 µM
  TGI: 18.1 µM
RXF 393 renal
  GI50: 3.02 µM
  TGI: 12.3 µM
SF-268 CNS
  GI50: 6.1 µM
  TGI: 23.9 µM
SF-295 CNS
  GI50: 2.88 µM
  TGI: 10.6 µM
SF-539 CNS
  GI50: 1.66 µM
  TGI: 3.12 µM
SK-MEL-2 melanoma
  GI50: 14.7 µM
  TGI: 30.2 µM
SK-MEL-28 melanoma
  GI50: 4.12 µM
  TGI: 16 µM
SK-MEL-5 melanoma
  GI50: 2 µM
  TGI: 4.6 µM
SK-OV-3 ovarian
  GI50: 12.9 µM
  TGI: 26.1 µM
SN12C renal
  GI50: 10.3 µM
  TGI: 22 µM
SNB-19 CNS
  GI50: 3.31 µM
  TGI: 13.4 µM
SNB-75 CNS
  GI50: 11 µM
  TGI: 22.9 µM
SR leukemia
  GI50: 1.82 µM
  TGI: 5.04 µM
SW-620 colon
  GI50: 3.15 µM
  TGI: 12.4 µM
T-47D breast
  GI50: 1.93 µM
  TGI: 4.51 µM
TK-10 renal
  GI50: 11.4 µM
  TGI: 25.4 µM
U251 CNS
  GI50: 2.38 µM
  TGI: 7.71 µM
UACC-257 melanoma
  GI50: 4.54 µM
  TGI: 17 µM
UACC-62 melanoma
  GI50: 2.78 µM
  TGI: 11.7 µM
UO-31 renal
  GI50: 4.76 µM
  TGI: 18 µM
